Results taken from PubChem BioAssay AID1963974 (Molecular Pharmacology Branch, DTP, NCI, 2024).

System: 648629-189-R-J1-PDC spheroids with HUVEC/MSC, viability
Experiment: Anticancer human tumor 648629-189-R-J1-PDC patient-derived bladder carcinoma cell line growth inhibition [PI3K]
Conditions: for viability, T/C: stronger effect = lower value; active = viability on the fitted dose curve at most 10% of control; inactive = the rest
Excerpt: Combinatorial screen of targeted agents with the PI3K inhibitors inavolisib, alpelisib, duvelisib, and copanlisib in multi-cell type tumor spheroids
A high-throughput screen of multi-cell type tumor spheroids was designed to identify active combinations of targeted small molecules and PI3K pathway inhibitors. Complex spheroids include a stromal component modeled by human endothelial cells (HUVEC) and fibroblasts modeled by human mesenchymal stem cells (MSCs). The concentration ranges selected for each drug and investigational agent were based upon clinically achievable concentrations if the clinical Cmax of the agent was known.
Compounds. The drugs and investigational agents: inavolisib (NSC800729), alpelisib (NSC765974), duvelisib (NSC772469), copanlisib (NSC816437), ipatasertib (NSC767898), afuresertib (NSC778305), talazoparib (NSC767125), sapanisertib (NSC764658), selumetinib (NSC741078), tovorafenib (DAY101, NSC766906), vemurafenib (NSC761431), ravoxertinib (NSC781343), sotorasib (NSC818433), MRTX1133 (NSC 836407), abemaciclib (NSC 768073), palbociclib (NSC758247), venetoclax (NSC 766270), SY5609 (NSC837396), enzalutamide (NSC755605), and darolutamide (NSC825331), were obtained from the National Cancer Institute (NCI) Developmental Therapeutics Program Chemical Repository. The FDA-approved anticancer drug set is available from the NCI Developmental Therapeutics Program. […] The stock solutions were prepared in dimethyl sulfoxide (DMSO, Sigma-Aldrich, St. Louis, MO, cat. D2650) at 800-fold the tested concentration and stored at -70 degrees C prior to their use. All drugs and investigational agents were tested over a range starting from a high concentration at or near the clinical Cmax and decreasing in half-log increments. If the clinical Cmax for an agent had not been determined, the highest concentration tested was 10 microM.
Cell Culture. All cells were maintained in an incubator at 37 degrees C and 5% CO2 with 95% humidity. The PDC lines were cultured according to standard operating procedures established by the NCI PDMR (https://pdmr.cancer.gov/sops/default.htm). All PDCs were thawed and cultured in Matrigel-coated flasks prepared with a working solution of 1X Ham's F-12 nutrient mix, without supplementation (Invitrogen, Waltham, MA, cat. 11765054), 100 U/mL penicillin-streptomycin (Invitrogen, cat. 15140122), and 2.5% Matrigel (Corning Inc., Corning, NY, cat. 354248) for the first three passages. The 354836-022-R-J1-PDC, 475296-252-R-J1-PDC, and 997726-040-R-J2-PDC lines were cultured in 6A media, which includes advanced DMEM/F-12 (Thermo Fisher Scientific, cat. 12634028), 10 mM HEPES (Thermo Fisher Scientific, cat. 15630080), 1X GlutaMAX supplement (Thermo Fisher Scientific, cat. 35050061), 0.1 mg/mL primocin (InvivoGen, San Diego, CA, cat. ant-pm-2), 10% defined fetal bovine serum, heat inactivated (HyClone Laboratories Inc., Logan, UT, cat. SH30070.03HI), 50% L-WRN conditioned media (ATCC, cat. CRL-3276), 1.25 mM N-Acetyl-L-cysteine (Sigma-Aldrich, cat. A9165), 10 mM nicotinamide (Sigma-Aldrich, cat. N0636), 1X B-27 supplement (Thermo Fisher Scientific, cat. 17504044), 1X N-2 supplement (Thermo Fisher Scientific, cat. 17502048), and 10 microM Y-27632 dihydrochloride (Tocris Bioscience, Bristol, United Kingdom, cat. 1254). The 624824-186-R-J2-PDC line was cultured in 6C/Colon 1B media, which includes all 6A media components plus 50 ng/mL human EGF recombinant protein (Thermo Fisher Scientific, cat. PHG0311). […]

[1] = curve of first compound, second compound 0.0316 µM
[2] = curve of first compound, second compound 0.1 µM
[3] = curve of first compound, second compound 0.316 µM
[4] = curve of first compound, second compound 1 µM
[5] = second compound 0.0316 µM, first compound 0.0316 µM
[6] = second compound 0.0316 µM, first compound 0.1 µM
[7] = second compound 0.1 µM, first compound 0.0316 µM
[8] = second compound 0.1 µM, first compound 0.1 µM
[9] = second compound 0.316 µM, first compound 0.0316 µM
[10] = second compound 0.316 µM, first compound 0.1 µM
[11] = second compound 1 µM, first compound 0.0316 µM
[12] = second compound 1 µM, first compound 0.1 µM
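Note: spheroids exposed to agents for seven days before reading.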
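Throughout, for viability, T/C: percent of vehicle control luminescence where 100% = DMSO treated spheroids.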

CC(C)n1nc(-c2ccc3oc(N)nc3c2)c2c(N)ncnc21 + CC(Nc1ccc2c(c1)OCCn1cc(N3C(=O)OCC3C(F)F)nc1-2)C(N)=O
59.5 nM: IC50 (curve of first compound, second compound 0.01 µM)
61.3 nM: IC50 (curve of first compound, second compound 0.00316 µM)
53.9 nM: IC50 [2]
inactive: viability, T/C (second compound 0.00316 µM, first compound 0.000316 µM) 119% | viability, T/C (second compound 0.00316 µM, first compound 0.001 µM) 100% | viability, T/C (second compound 0.00316 µM, first compound 0.00316 µM) 94.7% | viability, T/C (second compound 0.00316 µM, first compound 0.01 µM) 90% | viability, T/C (second compound 0.00316 µM, first compound 0.0316 µM) 68.8% | viability, T/C (second compound 0.00316 µM, first compound 0.1 µM) 36.2% | viability, T/C (second compound 0.01 µM, first compound 0.000316 µM) 102% | viability, T/C (second compound 0.01 µM, first compound 0.001 µM) 92.2% | viability, T/C (second compound 0.01 µM, first compound 0.00316 µM) 96.3% | viability, T/C (second compound 0.01 µM, first compound 0.01 µM) 95.5% | viability, T/C (second compound 0.01 µM, first compound 0.0316 µM) 74.3% | viability, T/C (second compound 0.01 µM, first compound 0.1 µM) 30% | viability, T/C (second compound 0.0316 µM, first compound 0.000316 µM) 119% | viability, T/C (second compound 0.0316 µM, first compound 0.001 µM) 103% | viability, T/C (second compound 0.0316 µM, first compound 0.00316 µM) 98.3% | viability, T/C (second compound 0.0316 µM, first compound 0.01 µM) 80% | viability, T/C [5] 75.9% | viability, T/C [6] 32.6% | viability, T/C (second compound 0.1 µM, first compound 0.000316 µM) 89.1% | viability, T/C (second compound 0.1 µM, first compound 0.001 µM) 94.9% | viability, T/C (second compound 0.1 µM, first compound 0.00316 µM) 80.3% | viability, T/C (second compound 0.1 µM, first compound 0.01 µM) 82.9% | viability, T/C [7] 72.5% | viability, T/C [8] 25.3% | viability, T/C (second compound 0.316 µM, first compound 0.000316 µM) 81.6% | viability, T/C (second compound 0.316 µM, first compound 0.001 µM) 73.3% | viability, T/C (second compound 0.316 µM, first compound 0.00316 µM) 78.6% | viability, T/C (second compound 0.316 µM, first compound 0.01 µM) 74.6% | viability, T/C [9] 50.2% | viability, T/C [10] 24.8% | viability, T/C (second compound 1 µM, first compound 0.000316 µM) 65.6% | viability, T/C (second compound 1 µM, first compound 0.001 µM) 63.1% | viability, T/C (second compound 1 µM, first compound 0.00316 µM) 67.2% | viability, T/C (second compound 1 µM, first compound 0.01 µM) 48% | viability, T/C [11] 39.8% | viability, T/C [12] 17.9%
12.5 nM: IC50 [4]
59 nM: IC50 [1]
31.8 nM: IC50 [3]

CC1(C)CCC(Nc2ncc(C(F)(F)F)c(-c3c[nH]c4c(P(C)(C)=O)c(C#N)ccc34)n2)CN1 (stereo unspecified) + Cc1nc(NC(=O)N2CCCC2C(N)=O)sc1-c1ccnc(C(C)(C)C(F)(F)F)c1
inactive: viability, T/C [5] 29.4% | viability, T/C [6] 27.6% | viability, T/C (second compound 0.0316 µM, first compound 0.316 µM) 25.6% | viability, T/C (second compound 0.0316 µM, first compound 1 µM) 33.7% | viability, T/C (second compound 0.0316 µM, first compound 3.16 µM) 40.7% | viability, T/C (second compound 0.0316 µM, first compound 10 µM) 5.12% | viability, T/C [7] 24.7% | viability, T/C [8] 27.4% | viability, T/C (second compound 0.1 µM, first compound 0.316 µM) 29.3% | viability, T/C (second compound 0.1 µM, first compound 1 µM) 38.2% | viability, T/C (second compound 0.1 µM, first compound 3.16 µM) 40.9% | viability, T/C (second compound 0.1 µM, first compound 10 µM) 4.14% | viability, T/C [9] 27.6% | viability, T/C [10] 24.7% | viability, T/C (second compound 0.316 µM, first compound 0.316 µM) 30.5% | viability, T/C (second compound 0.316 µM, first compound 1 µM) 27.9% | viability, T/C (second compound 0.316 µM, first compound 3.16 µM) 36.4% | viability, T/C (second compound 0.316 µM, first compound 10 µM) 4.18% | viability, T/C [11] 26.8% | viability, T/C [12] 23.9% | viability, T/C (second compound 1 µM, first compound 0.316 µM) 26% | viability, T/C (second compound 1 µM, first compound 1 µM) 27.4% | viability, T/C (second compound 1 µM, first compound 3.16 µM) 27.4% | viability, T/C (second compound 1 µM, first compound 10 µM) 2.87% | viability, T/C (second compound 3.16 µM, first compound 0.0316 µM) 26% | viability, T/C (second compound 3.16 µM, first compound 0.1 µM) 23.1% | viability, T/C (second compound 3.16 µM, first compound 0.316 µM) 21% | viability, T/C (second compound 3.16 µM, first compound 1 µM) 22.2% | viability, T/C (second compound 3.16 µM, first compound 3.16 µM) 24.7% | viability, T/C (second compound 3.16 µM, first compound 10 µM) 1.62% | viability, T/C (second compound 10 µM, first compound 0.0316 µM) 21.5% | viability, T/C (second compound 10 µM, first compound 0.1 µM) 17.1% | viability, T/C (second compound 10 µM, first compound 0.316 µM) 18.1% | viability, T/C (second compound 10 µM, first compound 1 µM) 16.6% | viability, T/C (second compound 10 µM, first compound 3.16 µM) 15.5%
< 31.6 nM: IC50 [1] | IC50 [2] | IC50 [3] | IC50 [4] | IC50 (curve of first compound, second compound 3.16 µM) | IC50 (curve of first compound, second compound 10 µM)
active: viability, T/C (second compound 10 µM, first compound 10 µM) 0.41%

CC(C)n1nc(-c2ccc3oc(N)nc3c2)c2c(N)ncnc21
inactive: viability, T/C (compound 0.000316 µM) 111% [middle of 4 runs] | viability, T/C (compound 0.001 µM) 102% [middle of 4 runs] | viability, T/C (compound 0.00316 µM) 97.9% [middle of 4 runs] | viability, T/C (compound 0.01 µM) 89.7% [middle of 4 runs] | viability, T/C (compound 0.0316 µM) 78.6% [middle of 4 runs] | viability, T/C (compound 0.1 µM) 34% [middle of 4 runs]
63.4 nM [middle of 4 runs]: IC50 (curve of compound)
